Reference: US9969749B2, “Inhibitors of IRAK4 activity” (MERCK SHARP & DOHME CORP., priority 2014, dated 2018)

target: IRAK4 (Homo sapiens (Human), UniProt Q9NWZ3); assay: IRAK4 Kinase Assay (IMAP fluorescence polarization); format: biochemical; settings: 0.5 nM GST tagged IRAK4, 100 μM ATP, 100 nM fluorescent peptide substrate RP7030, 30 minutes at 25° C.
Outline: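 GST-tagged IRAK4 (0.5 nM) phosphorylates 100 nM fluorescent peptide with 100 μM ATP in 10 mM Tris pH 7.2, 1 mM MgCl2, 1 mM DTT, 0.01% Tween 20 for 30 min at 25 °C. Phosphorylation read as IMAP nanoparticle-binding fluorescence polarization after stop reagent.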

Chain of IRAK4 (Q9NWZ3 whole entry): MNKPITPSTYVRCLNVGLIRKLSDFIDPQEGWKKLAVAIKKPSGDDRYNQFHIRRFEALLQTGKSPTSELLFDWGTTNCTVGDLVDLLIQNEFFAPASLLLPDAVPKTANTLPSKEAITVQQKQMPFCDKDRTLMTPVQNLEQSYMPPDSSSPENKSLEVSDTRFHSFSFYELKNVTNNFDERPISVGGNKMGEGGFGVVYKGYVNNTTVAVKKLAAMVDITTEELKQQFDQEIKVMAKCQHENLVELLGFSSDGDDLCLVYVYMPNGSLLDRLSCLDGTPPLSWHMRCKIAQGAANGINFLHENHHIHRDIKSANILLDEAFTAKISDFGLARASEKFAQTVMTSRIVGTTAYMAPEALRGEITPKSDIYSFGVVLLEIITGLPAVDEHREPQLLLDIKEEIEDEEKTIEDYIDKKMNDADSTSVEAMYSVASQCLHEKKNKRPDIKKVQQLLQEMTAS

Compound | IC50 [nM]
CN(C)[C@H]1CC[C@H](Nc2ncnc3ccc(-c4ccc5c(c4)OCCO5)cc23)CC1 [Example 1-49, trans-N′-[6-(2,3-dihydro-1,4-benzodioxin-6-yl)quinazolin-4-yl]-N,N-dimethylcyclohexane-1,4-diamine] | 161
CN(C)C1CCC(Nc2ncnc3ccc(-c4cn[nH]c4)cc23)CC1 (stereo not drawn) [Example 1-10, cis or trans-N,N-dimethyl-N′-[6-(1H-pyrazol-4-yl)quinazolin-4-yl]cyclohexane-1,4-diamine] | 1
CN(C)[C@H]1CC[C@H](Nc2ncnc3ccc(-c4cnn(CCN5CCOCC5)c4)cc23)CC1 [Example 1-15, trans-N,N-dimethyl-N′-(6-{1-[2-(morpholin-4-yl)ethyl]-1H-pyrazol-4-yl}quinazolin-4-yl)cyclohexane-1,4-diamine] | 1320
COc1cncc(-c2ccc3ncnc(N[C@H]4CC[C@H](N(C)C)CC4)c3c2)c1 [Example 1-51, trans-N′-[6-(5-methoxypyridin-3-yl)quinazolin-4-yl]-N,N-dimethylcyclohexane-1,4-diamine] | 25
CN(C)[C@H]1CC[C@H](Nc2ncnc3ccc(-c4cncc(F)c4)cc23)CC1 [Example 1-53, trans-N′-[6-(5-fluoropyridin-3-yl)quinazolin-4-yl]-N,N-dimethylcyclohexane-1,4-diamine] | 24
Cn1cc(-c2ccc3ncnc(N[C@H]4CC[C@H](N5CCOCC5)CC4)c3c2)cn1 [Example 1-75, 6-(1-methyl-1H-pyrazol-4-yl)-N-(trans-4-morpholin-4-ylcyclohexyl)quinazolin-4-amine] | 39
CN(C)[C@H]1CC[C@H](Nc2ncnc3ccc(-c4cnc5cc[nH]c5c4)cc23)CC1 [Example 1-59, trans-N,N-dimethyl-N′-[6-(1H-pyrrolo[3,2-b]pyridin-6-yl)quinazolin-4-yl]cyclohexane-1,4-diamine] | 124
CN(C)[C@H]1CC[C@H](Nc2ncnc3ccc(-c4cnc(NC5CC5)nc4)cc23)CC1 [Example 1-42, trans-N′-{6-[2-(cyclopropylamino)pyrimidin-5-yl]quinazolin-4-yl}-N,N-dimethylcyclohexane-1,4-diamine] | 11
CN(C)[C@H]1CC[C@H](Nc2ncnc3ccc(-c4ccc(O)nc4)cc23)CC1 [Example 1-28, 5-(4-{[trans-4-(dimethylamino)cyclohexyl]amino}quinazolin-6-yl)pyridin-2-ol] | 7
COc1cncc(-c2ccc3ncnc(N[C@H]4CC[C@H](N5CCOCC5)CC4)c3c2)c1 [Example 1-69, 6-(5-methoxypyridin-3-yl)-N-[trans-4-(morpholin-4-yl)cyclohexyl]quinazolin-4-amine] | 18
Nc1cncc(-c2ccc3ncnc(N[C@H]4CC[C@H](N5CCOCC5)CC4)c3c2)c1 [Example 1-73, 6-(5-aminopyridin-3-yl)-N-(trans-4-morpholin-4-ylcyclohexyl)quinazolin-4-amine] | 1
CNc1cncc(-c2ccc3ncnc(N[C@H]4CC[C@H](N5CCOCC5)CC4)c3c2)c1 [Example 1-81, 6-[5-(methylamino)pyridin-3-yl]-N-(trans-4-morpholin-4-ylcyclohexyl)quinazolin-4-amine] | 2
Cc1ccc(-c2ccc3ncnc(N[C@H]4CC[C@H](N(C)C)CC4)c3c2)cn1 [Example 1-30, trans-N,N-dimethyl-N′-[6-(6-methylpyridin-3-yl)quinazolin-4-yl]cyclohexane-1,4-diamine] | 42
Oc1cccc(-c2ccc3ncnc(N[C@H]4CC[C@H](N5CCOCC5)CC4)c3c2)c1 [Example 1-72, 3-{4-[(trans-4-morpholin-4-ylcyclohexyl)amino]quinazolin-6-yl}phenol] | 6
CN(C)C1CCC(Nc2ncnc3ccc(-c4cccnc4)cc23)CC1 (single isomer, unassigned) [Example 1-7, cis or trans-N,N-dimethyl-N′-[6-(pyridin-3-yl)quinazolin-4-yl]cyclohexane-1,4-diamine] | 13
CN(C)[C@H]1CC[C@H](Nc2ncnc3ccc(-c4cc(O)c(F)c(F)c4)cc23)CC1 [Example 1-64, 5-(4-{[trans-4-(dimethylamino)cyclohexyl]amino}quinazolin-6-yl)-2,3-difluorophenol] | 4
CN(C)[C@H]1CC[C@H](Nc2ncnc3ccc(-c4cncc(C#N)c4)cc23)CC1 [Example 1-54, 5-(4-{[trans-4-(dimethylamino)cyclohexyl]amino}quinazolin-6-yl)pyridine-3-carbonitrile] | 46
Nc1cccc(-c2ccc3ncnc(N[C@H]4CC[C@H](N5CCOCC5)CC4)c3c2)c1 [Example 1-83, 6-(3-aminophenyl)-N-(trans-4-morpholin-4-ylcyclohexyl)quinazolin-4-amine] | 9
COc1ncc(-c2ccc3ncnc(N[C@H]4CC[C@H](N(C)C)CC4)c3c2)cc1F [Example 1-52, trans-N′-[6-(5-fluoro-6-methoxypyridin-3-yl)quinazolin-4-yl]-N,N-dimethylcyclohexane-1,4-diamine] | 200
CN(C)[C@H]1CC[C@H](Nc2ncnc3ccc(-c4cnc(O)nc4)cc23)CC1 [Example 1-33, 5-(4-{[trans-4-(dimethylamino)cyclohexyl]amino}quinazolin-6-yl)pyrimidin-2-ol] | 9
CN(C)[C@H]1CC[C@H](Nc2ncnc3ccc(-c4cccc(C#N)c4)cc23)CC1 [Example 1-44, 3-(4-{[trans-4-(dimethylamino)cyclohexyl]amino}quinazolin-6-yl)benzonitrile] | 32
CN(C)[C@H]1CC[C@H](Nc2ncnc3ccc(-c4cncc(S(C)(=O)=O)c4)cc23)CC1 [Example 1-41, trans-N,N-dimethyl-N′-{6-[5-(methylsulfonyl)pyridin-3-yl]quinazolin-4-yl}cyclohexane-1,4-diamine] | 2350
CN(C)[C@H]1CC[C@H](Nc2ncnc3ccc(-c4cnc5[nH]ncc5c4)cc23)CC1 [Example 1-58, trans-N,N-dimethyl-N′-[6-(1H-pyrazolo[3,4-b]pyridin-5-yl)quinazolin-4-yl]cyclohexane-1,4-diamine] | 21

Other lines, results leading:

IC50 [nM] | Compound
23 | CNc1cncc(-c2cc3c(N[C@H]4CC[C@H](N5CCOCC5)CC4)ncnc3cc2F)c1 [Example 1-86, 7-fluoro-6-[5-(methylamino)pyridin-3-yl]-N-(trans-4-morpholin-4-ylcyclohexyl)quinazolin-4-amine]
10 | Nc1cc(-c2ccc3ncnc(N[C@H]4CC[C@H](N5CCOCC5)CC4)c3c2)cnc1Cl [Example 2-36, 6-(5-amino-6-chloropyridin-3-yl)-N-[trans-4-(morpholin-4-yl)cyclohexyl]quinazolin-4-amine]
1 | CN(C1CC1)[C@H]1CC[C@H](Nc2ncnc3ccc(-c4cncc(O)c4)cc23)CC1 [Example 5-3, 5-[4-({trans-4-[cyclopropyl(methyl)amino]cyclohexyl}amino)quinazolin-6-yl]pyridin-3-ol]
126 | Cc1c(-c2ccc3ncnc(N[C@H]4CC[C@H](N5CCOCC5)CC4)c3c2)cnn1C [Example 2-21, 6-(1,5-dimethyl-1H-pyrazol-4-yl)-N-[trans-4-(morpholin-4-yl)cyclohexyl]quinazolin-4-amine]
119 | FC(F)(F)c1cncc(-c2ccc3ncnc(N[C@H]4CC[C@H](N5CCOCC5)CC4)c3c2)c1 [Example 2-4, N-(trans-4-morpholin-4-ylcyclohexyl)-6-[5-(trifluoromethyl)pyridin-3-yl]quinazolin-4-amine]
1 | COC1CN([C@H]2CC[C@H](Nc3ncnc4ccc(-c5cncc(O)c5)cc34)CC2)C1 [Example 5-2, 5-(4-{[trans-4-(3-methoxyazetidin-1-yl)cyclohexyl]amino}quinazolin-6-yl)pyridin-3-ol]
28 | Fc1cc(-c2ccc3ncnc(N[C@H]4CC[C@H](N5CCOCC5)CC4)c3c2)cnc1Cl [Example 2-33, 6-(6-chloro-5-fluoropyridin-3-yl)-N-[trans-4-(morpholin-4-yl)cyclohexyl]quinazolin-4-amine]
22 | Cc1n[nH]cc1-c1ccc2ncnc(N[C@H]3CC[C@H](N4CCOCC4)CC3)c2c1 [Example 2-20, 6-(3-methyl-1H-pyrazol-4-yl)-N-[trans-4-(morpholin-4-yl)cyclohexyl]quinazolin-4-amine]
104 | Cc1n[nH]c(C)c1-c1ccc2ncnc(N[C@H]3CC[C@H](N4CCOCC4)CC3)c2c1 [Example 2-24, 6-(3,5-dimethyl-1H-pyrazol-4-yl)-N-[trans-4-(morpholin-4-yl)cyclohexyl]quinazolin-4-amine]
1 | CNc1cc(-c2ccc3ncnc(N[C@H]4CC[C@H](N5CCO[C@@H](C)C5)CC4)c3c2)cnc1F [Example 5-31, 6-[6-fluoro-5-(methylamino)pyridin-3-yl]-N-{trans-4-[(2S)-2-methylmorpholin-4-yl]cyclohexyl}quinazolin-4-amine]
80 | FC(F)(F)c1n[nH]cc1-c1ccc2ncnc(N[C@H]3CC[C@H](N4CCOCC4)CC3)c2c1 [Example 2-14, N-(trans-4-morpholin-4-ylcyclohexyl)-6-[3-(trifluoromethyl)-1H-pyrazol-4-yl]quinazolin-4-amine]
152 | Cn1nncc1-c1ccc2ncnc(N[C@H]3CC[C@H](N4CCOCC4)CC3)c2c1 [Example 2-15, 6-(1-methyl-1H-1,2,3-triazol-5-yl)-N-(trans-4-morpholin-4-ylcyclohexyl)quinazolin-4-amine]
122 | O=C(O)c1cccc(-c2ccc3ncnc(N[C@H]4CC[C@H](N5CCOCC5)CC4)c3c2)n1 [Example 2-8, 6-{4-[(trans-4-morpholin-4-ylcyclohexyl)amino]quinazolin-6-yl}pyridine-2-carboxylic acid]
1 | CN(C)[C@H]1CC[C@H](Nc2ncnc3ccc(-c4cncc(O)c4)cc23)CC1 [Example 3-1, 5-(4-(((Trans)-4-(dimethylamino)cyclohexyl)amino)quinazolin-6-yl)pyridin-3-ol]
